According to the NIST ThermoML archive (doi:10.1016/j.jct.2019.03.039):

Assay: mn = molality of the nth substance listed, in mol/kg
Conditions: 101.3 kPa, Liquid; for viscosity: Capillary tube (Ostwald / Ubbelohde) method; for speed of sound: Frequency=4 MHz, Linear variable-path acoustic interferometer; for mass density: Vibrating tube method

N=C(N)NCCC[C@H](N)C(=O)O [L-arginine] + O
Conditions | mass density [kg/m3] | speed of sound [m/s] | viscosity [mPa·s]
293.15 K, m1 = 0.05014 | 1000.72 | 1487.6 | 1.032
293.15 K, m1 = 0.1001 | 1003.17 | 1492.7 | 1.054
293.15 K, m1 = 0.15 | 1005.58 | 1497.9 | 1.08
293.15 K, m1 = 0.2 | 1007.92 | 1503.2 | 1.107
293.15 K, m1 = 0.25 | 1010.21 | 1508.6 | 1.13
293.15 K, m1 = 0.3001 | 1012.47 | 1514.1 | 1.155
298.15 K, m1 = 0.05014 | 999.556 | 1502.4 | 0.9151
298.15 K, m1 = 0.1001 | 1001.99 | 1507.5 | 0.9358
298.15 K, m1 = 0.15 | 1004.36 | 1512.7 | 0.9586
298.15 K, m1 = 0.2 | 1006.68 | 1518 | 0.9766
298.15 K, m1 = 0.25 | 1008.94 | 1523.4 | 1
298.15 K, m1 = 0.3001 | 1011.17 | 1528.9 | 1.021
303.15 K, m1 = 0.05014 | 998.142 | 1514.5 | 0.8179
303.15 K, m1 = 0.1001 | 1000.55 | 1519.6 | 0.8355
303.15 K, m1 = 0.15 | 1002.9 | 1524.8 | 0.8555
303.15 K, m1 = 0.2 | 1005.19 | 1530.1 | 0.8718
303.15 K, m1 = 0.25 | 1007.45 | 1535.5 | 0.8909
303.15 K, m1 = 0.3001 | 1009.67 | 1541 | 0.9084
308.15 K, m1 = 0.05014 | 996.503 | 1524.3 | 0.7362
308.15 K, m1 = 0.1001 | 998.883 | 1529.4 | 0.7512
308.15 K, m1 = 0.15 | 1001.21 | 1534.6 | 0.7694
308.15 K, m1 = 0.2 | 1003.48 | 1539.9 | 0.7828
308.15 K, m1 = 0.25 | 1005.7 | 1545.3 | 0.7987
308.15 K, m1 = 0.3001 | 1007.89 | 1550.8 | 0.8144
313.15 K, m1 = 0.05014 | 994.671 | 1533.7 | 0.6673
313.15 K, m1 = 0.1001 | 997.036 | 1538.8 | 0.6808
313.15 K, m1 = 0.15 | 999.344 | 1544 | 0.6951
313.15 K, m1 = 0.2 | 1001.6 | 1549.3 | 0.7067
313.15 K, m1 = 0.25 | 1003.8 | 1554.7 | 0.7224
313.15 K, m1 = 0.3001 | 1005.97 | 1560.3 | 0.7345

O [water] + N[C@@H](CO)C(=O)O
m2 = 0
Conditions | mass density [kg/m3] | speed of sound [m/s] | viscosity [mPa·s]
293.15 K | – | – | 1.002
298.15 K | – | – | 0.8906
303.15 K | – | – | 0.7975
308.15 K | 994.059 | 1519.3 | 0.7193
313.15 K | – | 1528.7 | 0.6531

O [water] + Cc1ncc(C[n+]2csc(CCO)c2C)c(N)n1.Cl.[Cl-]
m2 = 0
Conditions | mass density [kg/m3] | speed of sound [m/s] | viscosity [mPa·s]
293.15 K | – | – | 1.002
298.15 K | – | – | 0.8906
303.15 K | – | – | 0.7975
308.15 K | 994.059 | 1519.3 | 0.7193
313.15 K | – | 1528.7 | 0.6531

Cc1ncc(C[n+]2csc(CCO)c2C)c(N)n1.Cl.[Cl-] [thiamine hydrochloride] + O
Conditions | mass density [kg/m3] | speed of sound [m/s] | viscosity [mPa·s]
293.15 K, m1 = 0.0497 | 1003.19 | 1490.4 | 1.048
293.15 K, m1 = 0.0502 | 1003.19 | – | 1.048
293.15 K, m1 = 0.0503 | – | 1490.4 | –
293.15 K, m1 = 0.1003 | 1008.06 | 1498.5 | 1.071
293.15 K, m1 = 0.1008 | 1008.06 | 1498.5 | 1.071
293.15 K, m1 = 0.1498 | 1013.01 | 1507.2 | 1.101
293.15 K, m1 = 0.1505 | 1013.01 | 1507.2 | 1.101
298.15 K, m1 = 0.0497 | 1001.99 | 1504.1 | 0.9193
298.15 K, m1 = 0.0502 | 1001.99 | – | 0.9193
298.15 K, m1 = 0.0503 | – | 1504.1 | –
298.15 K, m1 = 0.1003 | 1006.87 | 1512.6 | 0.954
298.15 K, m1 = 0.1008 | 1006.87 | 1512.6 | 0.954
298.15 K, m1 = 0.1498 | 1011.77 | 1520.8 | 0.9913
298.15 K, m1 = 0.1505 | 1011.77 | 1520.8 | 0.9913
303.15 K, m1 = 0.0497 | 1000.56 | 1516.7 | 0.8251
303.15 K, m1 = 0.0502 | 1000.56 | – | 0.8251
303.15 K, m1 = 0.0503 | – | 1516.7 | –
303.15 K, m1 = 0.1003 | 1005.44 | 1524.1 | 0.8569
303.15 K, m1 = 0.1008 | 1005.44 | 1524.1 | 0.8569
303.15 K, m1 = 0.1498 | 1010.29 | 1532.7 | 0.8892
303.15 K, m1 = 0.1505 | 1010.29 | 1532.7 | 0.8892
308.15 K, m1 = 0.0497 | 998.93 | 1526.9 | 0.7565
308.15 K, m1 = 0.0502 | 998.93 | – | 0.7565
308.15 K, m1 = 0.0503 | – | 1526.9 | –
308.15 K, m1 = 0.1003 | 1003.79 | 1533.7 | 0.7753
308.15 K, m1 = 0.1008 | 1003.79 | 1533.7 | 0.7753
308.15 K, m1 = 0.1498 | 1008.62 | 1542.5 | 0.8015
308.15 K, m1 = 0.1505 | 1008.62 | 1542.5 | 0.8015
313.15 K, m1 = 0.0497 | 997.193 | 1535.5 | 0.6772
313.15 K, m1 = 0.0502 | 997.193 | – | 0.6772
313.15 K, m1 = 0.0503 | – | 1535.5 | –
313.15 K, m1 = 0.1003 | 1002 | 1542.8 | 0.7057
313.15 K, m1 = 0.1008 | 1002 | 1542.8 | 0.7057
313.15 K, m1 = 0.1498 | 1006.76 | 1551.1 | 0.7388
313.15 K, m1 = 0.1505 | 1006.76 | 1551.1 | 0.7388

O [water] + N=C(N)NCCC[C@H](N)C(=O)O
m2 = 0
Conditions | mass density [kg/m3] | speed of sound [m/s] | viscosity [mPa·s]
293.15 K | – | – | 1.002
298.15 K | – | – | 0.8906
303.15 K | – | – | 0.7975
308.15 K | 994.059 | 1519.3 | 0.7193
313.15 K | – | 1528.7 | 0.6531

N[C@@H](CO)C(=O)O [L-serine] + O
Conditions | mass density [kg/m3] | speed of sound [m/s] | viscosity [mPa·s]
293.15 K, m1 = 0.05002 | 1000.49 | 1485.7 | 1.011
293.15 K, m1 = 0.1001 | 1002.74 | 1488.9 | 1.022
293.15 K, m1 = 0.15 | 1004.96 | 1492.2 | 1.034
293.15 K, m1 = 0.2003 | 1007.18 | 1495.6 | 1.046
293.15 K, m1 = 0.2502 | 1009.36 | 1499.1 | 1.058
293.15 K, m1 = 0.2999 | 1011.52 | 1502.7 | 1.069
298.15 K, m1 = 0.05002 | 999.314 | 1500.4 | 0.8972
298.15 K, m1 = 0.1001 | 1001.55 | 1503.5 | 0.907
298.15 K, m1 = 0.15 | 1003.74 | 1506.7 | 0.9165
298.15 K, m1 = 0.2003 | 1005.94 | 1510 | 0.9277
298.15 K, m1 = 0.2502 | 1008.1 | 1513.4 | 0.9379
298.15 K, m1 = 0.2999 | 1010.23 | 1516.9 | 0.9477
303.15 K, m1 = 0.05002 | 997.896 | 1512.4 | 0.8025
303.15 K, m1 = 0.1001 | 1000.1 | 1515.4 | 0.8115
303.15 K, m1 = 0.15 | 1002.27 | 1518.5 | 0.8204
303.15 K, m1 = 0.2003 | 1004.44 | 1521.7 | 0.8295
303.15 K, m1 = 0.2502 | 1006.56 | 1525 | 0.8377
303.15 K, m1 = 0.2999 | 1008.66 | 1528.4 | 0.8466
308.15 K, m1 = 0.05002 | 996.254 | 1522.1 | 0.723
308.15 K, m1 = 0.1001 | 998.433 | 1525 | 0.7313
308.15 K, m1 = 0.15 | 1000.58 | 1528 | 0.7386
308.15 K, m1 = 0.2003 | 1002.72 | 1531.1 | 0.7463
308.15 K, m1 = 0.2502 | 1004.83 | 1534.3 | 0.7535
308.15 K, m1 = 0.2999 | 1006.92 | 1537.6 | 0.7611
313.15 K, m1 = 0.05002 | 994.421 | 1531.4 | 0.6558
313.15 K, m1 = 0.1001 | 996.578 | 1534.2 | 0.6627
313.15 K, m1 = 0.15 | 998.702 | 1537.1 | 0.6688
313.15 K, m1 = 0.2003 | 1000.82 | 1540.2 | 0.6756
313.15 K, m1 = 0.2502 | 1002.91 | 1543.3 | 0.682
313.15 K, m1 = 0.2999 | 1004.97 | 1546.6 | 0.6881
